Columns and labels:
[1] = species on record: Felis catus; experiment: Percentage inhibition of depressor response in cat was determined; assay type: functional; set-up: concentration or dose not given beside the values
[2] = target: Adrenergic receptor beta (Rattus norvegicus) (UniProt P18090+P10608+P26255); experiment: In vivo beta-adrenoceptor blocking potency measured by blockade of the isoproterenol tachycardia response in rat; assay type: functional, organism-based

| ED50 [2] | SMILES | Inhibition [1] |
| --- | --- | --- |
| 7 mg/kg | COc1ccc(CC(=O)NCCNCC(O)c2ccccc2)cc1OC (stereo unspecified) | – |
| 2.5 mg/kg | Nc1ccc(CC(=O)NCCNCC(O)c2ccccc2)cc1 (stereo unspecified) | – |
| 0.3 mg/kg | O=C(CO)NCCNCC(O)c1ccccc1 (stereo unspecified) | – |
| 1.4 mg/kg | CCCCCC(=O)NCCNCC(O)c1ccccc1 (stereo unspecified) | 8% |
| 0.6 mg/kg | CC(=O)c1ccc(OCC(=O)NCCNCC(O)c2ccccc2)cc1 (stereo unspecified) | – |
| 0.07 mg/kg | CCC(=O)NCCNCC(O)c1ccccc1 (stereo unspecified) | 46% |
| 0.7 mg/kg | N#Cc1ccc(OCC(=O)NCCNCC(O)c2ccccc2)cc1 (stereo unspecified) | – |
| 9 mg/kg | O=C(NCCNCC(O)c1ccccc1)c1ccc(O)cc1 (stereo unspecified) | 10% |
| 0.03 mg/kg | CC(CNC(=O)Cc1ccccc1Cl)NCC(O)c1ccccc1 (stereo unspecified) | 19% |
| 0.7 mg/kg | CC(C)C(=O)NCCNCC(O)c1ccccc1 (stereo unspecified) | 27% |
| 0.7 mg/kg | O=C(Cc1ccc(Cl)cc1)NCCNCC(O)c1ccccc1 (stereo unspecified) | 3% |
| 0.08 mg/kg | CC(=O)NCCNCC(O)c1ccccc1 (stereo unspecified) | 50% |
| 0.72 mg/kg | CC(C)CC(=O)NCCNCC(O)c1ccccc1 (stereo unspecified) | 25% |
| 2.8 mg/kg | CCOC(=O)NCCNCC(O)c1ccccc1 (stereo unspecified) | – |
| 8 mg/kg | CC(CNCC(O)c1ccccc1)NC(=O)Cc1ccccc1 (stereo unspecified) | – |
| 10 mg/kg | O=C(NCCNCC(O)c1ccccc1)c1ccccc1 (stereo unspecified) | – |
| 5.2 mg/kg | NC(=O)c1ccccc1OCC(=O)NCCNCC(O)c1ccccc1 (stereo unspecified) | – |
| 0.6 mg/kg | O=C(Cc1ccccc1)NCCNCC(O)c1ccccc1Cl.O=C(O)/C=C/C(=O)O (stereo unspecified) | 45% |
| 0.4 mg/kg | COCC(=O)NCCNCC(O)c1ccccc1 (stereo unspecified) | 44% |
| 0.32 mg/kg | COc1ccc(CC(=O)NCCNCC(O)c2ccccc2)cc1 (stereo unspecified) | 24% |
| 2.5 mg/kg | O=C(COc1ccc(Cl)cc1)NCCNCC(O)c1ccccc1 (stereo unspecified) | 36% |
| 5.8 mg/kg | C=CCOc1ccccc1OCC(=O)NCCNCC(O)c1ccccc1 (stereo unspecified) | – |
| 1.2 mg/kg | CC(=O)Nc1ccc(CC(=O)NCCNCC(O)c2ccccc2)cc1 (stereo unspecified) | – |
| 1.6 mg/kg | CC(O)c1ccc(OCC(=O)NCCNCC(O)c2ccccc2)cc1 (stereo unspecified) | – |
| 2.9 mg/kg | O=C(NCCNCC(O)c1ccccc1)Nc1ccccc1 (stereo unspecified) | 0% |
| 1 mg/kg | O=C(COc1ccccc1)NCCNCC(O)c1ccccc1 (stereo unspecified) | – |
| 0.1 mg/kg | CC(CNC(=O)Cc1ccccc1)NCC(O)c1ccccc1 (stereo unspecified) | 36% |
| 0.45 mg/kg | CCCC(=O)NCCNCC(O)c1ccccc1 (stereo unspecified) | 0% |
| 0.38 mg/kg | O=C(Cc1ccccc1)NCCNCC(O)c1ccccc1 (stereo unspecified) | 6% |

The remaining lines, values behind:

| SMILES | ED50 [2] | Inhibition [1] |
| --- | --- | --- |
| COc1ccc(C(O)CNCCNC(=O)C(C)C)cc1 (stereo unspecified) | 0.3 mg/kg | 0% |
| CCCS(=O)(=O)NCCNCC(O)c1ccccc1 (stereo unspecified) | 0.5 mg/kg | 0% |
| CC(C)(CNC(=O)Cc1ccccc1)NCC(O)c1ccccc1.O=C(O)/C=C/C(=O)O (stereo unspecified) | 0.1 mg/kg | 28% |
| O=S(=O)(NCCNCC(O)c1ccccc1)c1ccccc1 (stereo unspecified) | 1 mg/kg | 27% |
| CCCCNC(=O)NCCNCC(O)c1ccccc1 (stereo unspecified) | 0.5 mg/kg | 54% |
| CC(C)C(=O)NCC(C)(C)NCC(O)c1ccccc1 (stereo unspecified) | 0.27 mg/kg | 9% |
| CC(C)C(=O)NCCNCC(O)c1ccc([N+](=O)[O-])cc1 (stereo unspecified) | 10 mg/kg | 0% |
| O=S(=O)(Cc1ccccc1)NCCNCC(O)c1ccccc1 (stereo unspecified) | 2 mg/kg | 0% |
| CC(C)C(=O)NCCNCC(O)c1ccc(N)cc1 (stereo unspecified) | 0.6 mg/kg | 69% |
| O=C(NCCNCC(O)c1ccccc1)C1CCCC1 (stereo unspecified) | 0.42 mg/kg | 8% |
| CC(CNC(=O)C1CCCCC1)NCC(O)c1ccccc1 (stereo unspecified) | 0.11 mg/kg | 19% |
| CCC(=O)NCCNCC(O)c1ccc(C)cc1 (stereo unspecified) | 0.5 mg/kg | – |
| CC(C)C(=O)NCCNCC(O)c1ccc(Cl)cc1Cl (stereo unspecified) | 0.75 mg/kg | – |
| CC(C)C(=O)NCCNCC(O)c1ccc(NS(C)(=O)=O)cc1 (stereo unspecified) | 5.2 mg/kg | – |
| C=CCNC(=O)NCCNCC(O)c1ccccc1 (stereo unspecified) | 0.26 mg/kg | 0% |
| O=C(NCCNCC(O)c1ccccc1)C(F)(F)F (stereo unspecified) | 0.1 mg/kg | – |
| Cl.O=C(NCCNCC(O)c1ccccc1)C1CCCCC1 (stereo unspecified) | 0.16 mg/kg | 0% |
| CC(C)NCC(O)c1ccc(NS(C)(=O)=O)cc1 (stereo unspecified) [SOTALOL] | – | 85% |
| CC(C)C(=O)NCCNCC(O)c1ccc(Br)cc1 (stereo unspecified) | 1.6 mg/kg | – |
| CC(=O)Nc1ccc(OCC(O)CNC(C)C)cc1 (stereo unspecified) [PRACTOLOL] | – | 8% |
| CCC(C)NCC(O)c1ccc2c(c1)CCCC2.Cl (stereo unspecified) | – | 47% |
| O=[N+]([O-])c1ccccc1S(=O)(=O)NCCNCC(O)c1ccccc1 (stereo unspecified) | 2.5 mg/kg | 23% |

Source: ChEMBL document CHEMBL1121381, “Beta-adrenergic blocking agents. 19. 1-Phenyl-2-[[(substituted-amido)alkyl]amino]ethanols” (1980)
